From PubChem BioAssay AID1963874 (Molecular Pharmacology Branch, DTP, NCI, 2024)

System: 253994-281-T-J1-PDC KRAS-mutant spheroids with HUVEC/MSC, viability
Experiment: Anticancer human tumor 253994-281-T-J1-PDC patient-derived colorectal carcinoma cell line growth inhibition [KRAS2]
Settings: for IC50: curve of first compound; for viability, T/C: stronger effect = lower value
Outline: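 Combination screen of spheroid viability in tumor-cell co-cultures with endothelial (HUVEC) and mesenchymal stem cell stroma. Each agent was tested in half-log dilutions, topping at clinical Cmax or at 10 microM without a known Cmax.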

[1] = second compound 0.1 µM, first compound 0.0316 µM
[2] = second compound 0.1 µM, first compound 0.1 µM
[3] = second compound 0.1 µM, first compound 0.316 µM
[4] = second compound 0.1 µM, first compound 1 µM
[5] = second compound 0.1 µM, first compound 3.16 µM
[6] = second compound 0.1 µM, first compound 10 µM
[7] = second compound 0.316 µM, first compound 0.0316 µM
[8] = second compound 0.316 µM, first compound 0.1 µM
[9] = second compound 0.316 µM, first compound 0.316 µM
[10] = second compound 0.316 µM, first compound 1 µM
[11] = second compound 0.316 µM, first compound 3.16 µM
[12] = second compound 0.316 µM, first compound 10 µM
[13] = second compound 1 µM, first compound 0.0316 µM
[14] = second compound 1 µM, first compound 0.1 µM
[15] = second compound 1 µM, first compound 0.316 µM
[16] = second compound 1 µM, first compound 1 µM
[17] = second compound 1 µM, first compound 3.16 µM
[18] = second compound 1 µM, first compound 10 µM
[19] = second compound 3.16 µM, first compound 0.0316 µM
[20] = second compound 3.16 µM, first compound 0.1 µM
[21] = second compound 3.16 µM, first compound 0.316 µM
[22] = second compound 3.16 µM, first compound 1 µM
[23] = second compound 3.16 µM, first compound 3.16 µM
[24] = second compound 3.16 µM, first compound 10 µM
[25] = second compound 10 µM, first compound 0.0316 µM
[26] = second compound 10 µM, first compound 0.1 µM
[27] = second compound 10 µM, first compound 0.316 µM
[28] = second compound 10 µM, first compound 1 µM
[29] = second compound 10 µM, first compound 3.16 µM
[30] = second compound 10 µM, first compound 10 µM
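Further: spheroids exposed to agents for seven days before readout.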
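Wherever viability, T/C is given: percent of DMSO vehicle control viability.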

Structure (SMILES)	IC50 (second compound 0.1 µM)	IC50 (second compound 0.316 µM)	IC50 (second compound 1 µM)	IC50 (second compound 3.16 µM)	IC50 (second compound 10 µM)	viability, T/C [1]	viability, T/C [2]	viability, T/C [3]	viability, T/C [4]	viability, T/C [5]	viability, T/C [6]	viability, T/C [7]	viability, T/C [8]	viability, T/C [9]	viability, T/C [13]	viability, T/C [14]	viability, T/C [19]	viability, T/C [20]	viability, T/C [25]	viability, T/C [26]	other results
CC(C)NCC(C(=O)N1CCN(c2ncnc3c2C(C)CC3O)CC1)c1ccc(Cl)cc1 (stereo not given) + COc1cc2nc(C)nc(NC(C)c3cc(N)cc(C(F)(F)F)c3)c2cc1OC1CCOC1	> 10 µM	> 10 µM	> 10 µM	> 10 µM	> 10 µM	86.1%	97.9%	92.5%	94.6%	93%	97.1%	86.3%	85.7%	78.7%	84.3%	83.4%	83.2%	87.4%	67.9%	79.8%	viability, T/C [10]: 87.6%; viability, T/C [11]: 82%; viability, T/C [12]: 90.2%; viability, T/C [15]: 94.1%; viability, T/C [16]: 86.2%; viability, T/C [17]: 92.4%; viability, T/C [18]: 96.4%; viability, T/C [21]: 85.9%; viability, T/C [22]: 94.2%; viability, T/C [23]: 92.3%; viability, T/C [24]: 74.7%; viability, T/C [27]: 85.5%; viability, T/C [28]: 79.5%; viability, T/C [29]: 71.2%; viability, T/C [30]: 83.7%
CC(C)n1nc(-c2ccc3oc(N)nc3c2)c2c(N)ncnc21 + COc1cc2nc(C)nc(NC(C)c3cc(N)cc(C(F)(F)F)c3)c2cc1OC1CCOC1	> 0.1 µM	> 0.1 µM	> 0.1 µM	> 0.1 µM	0.0849 µM	82.7%	56.8%	–	–	–	–	74.4%	56.2%	–	76.5%	51%	72.8%	57.2%	64.1%	47.6%	viability, T/C (second compound 0.1 µM, first compound 0.000316 µM): 82.7%; viability, T/C (second compound 0.1 µM, first compound 0.001 µM): 102%; viability, T/C (second compound 0.1 µM, first compound 0.00316 µM): 74.1%; viability, T/C (second compound 0.1 µM, first compound 0.01 µM): 87%; viability, T/C (second compound 0.316 µM, first compound 0.000316 µM): 86.4%; viability, T/C (second compound 0.316 µM, first compound 0.001 µM): 83.6%; viability, T/C (second compound 0.316 µM, first compound 0.00316 µM): 88%; viability, T/C (second compound 0.316 µM, first compound 0.01 µM): 79.3%; viability, T/C (second compound 1 µM, first compound 0.000316 µM): 90%; viability, T/C (second compound 1 µM, first compound 0.001 µM): 97.6%; viability, T/C (second compound 1 µM, first compound 0.00316 µM): 82%; viability, T/C (second compound 1 µM, first compound 0.01 µM): 82.7%; viability, T/C (second compound 3.16 µM, first compound 0.000316 µM): 81.9%; viability, T/C (second compound 3.16 µM, first compound 0.001 µM): 94.5%; viability, T/C (second compound 3.16 µM, first compound 0.00316 µM): 85.5%; viability, T/C (second compound 3.16 µM, first compound 0.01 µM): 82%; viability, T/C (second compound 10 µM, first compound 0.000316 µM): 78.5%; viability, T/C (second compound 10 µM, first compound 0.001 µM): 79.5%; viability, T/C (second compound 10 µM, first compound 0.00316 µM): 77.2%; viability, T/C (second compound 10 µM, first compound 0.01 µM): 79.5%
CC1(C)CCC(CN2CCN(c3ccc(C(=O)NS(=O)(=O)c4ccc(NCC5CCOCC5)c([N+](=O)[O-])c4)c(Oc4cnc5[nH]ccc5c4)c3)CC2)=C(c2ccc(Cl)cc2)C1 + COc1cc2nc(C)nc(NC(C)c3cc(N)cc(C(F)(F)F)c3)c2cc1OC1CCOC1	> 10 µM	> 10 µM	8.29 µM	5.51 µM	2.59 µM	89%	85.8%	85.6%	89.1%	67.2%	64.1%	84.1%	80%	79.8%	76.8%	85.9%	91.6%	85.2%	71.1%	72%	viability, T/C [10]: 83.5%; viability, T/C [11]: 75.2%; viability, T/C [12]: 53.3%; viability, T/C [15]: 82.5%; viability, T/C [16]: 78%; viability, T/C [17]: 64.7%; viability, T/C [18]: 47.1%; viability, T/C [21]: 81.7%; viability, T/C [22]: 82.2%; viability, T/C [23]: 55.2%; viability, T/C [24]: 44.3%; viability, T/C [27]: 74.4%; viability, T/C [28]: 61.6%; viability, T/C [29]: 47.8%; viability, T/C [30]: 24.4%
